Results published in BindingDB's records for doi:10.7270/Q2TD9VTQ (Burnham Center For Chemical Genomics, 2010).

Biological target: T1, Caspase-1 (Homo sapiens, UniProt P29466)
T1 sequence (P29466 whole entry): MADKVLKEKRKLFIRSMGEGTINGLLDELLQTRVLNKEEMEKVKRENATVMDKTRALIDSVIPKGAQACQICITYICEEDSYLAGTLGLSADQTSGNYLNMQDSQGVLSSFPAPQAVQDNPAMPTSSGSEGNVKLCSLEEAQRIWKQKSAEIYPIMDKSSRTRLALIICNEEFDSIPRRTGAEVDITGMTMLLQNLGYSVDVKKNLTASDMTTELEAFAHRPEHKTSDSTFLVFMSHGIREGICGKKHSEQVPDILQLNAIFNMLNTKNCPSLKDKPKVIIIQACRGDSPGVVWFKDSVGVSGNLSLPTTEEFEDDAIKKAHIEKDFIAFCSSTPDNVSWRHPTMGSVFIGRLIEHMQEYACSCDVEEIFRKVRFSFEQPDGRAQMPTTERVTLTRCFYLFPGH
Test: Yeast CASP1/ASC signal blockade, IC50 values, counterassay for NLRP1 inhibitor project (AID 488863)

| Compound | IC50 |
| --- | --- |
| Cc1ccc(-n2c(O)cc(Sc3ccccc3C(=O)O)c2O)cc1 | 20.6 µM |
| COc1ccccc1-n1c(O)c2c(c1O)CC(c1ccccc1)CC2 (stereo not drawn) | > 100 µM |
| Oc1cc(Sc2nnnn2-c2ccccc2)c(O)n1-c1cccc(Cl)c1 | 5.13 µM |
